Values quoted from earlier work as cited in patent US20240041963A1, “A NUTRACEUTICALS FORMULATION WITH AN ENHANCED ORGANOLEPTIC PROPERTIES USED FOR SCALP AND HAIR CARE” (DiaBliss Consumer Products Pvt Ltd, priority 2020, published 2024).
Like-named read-outs stand apart in the source and are kept apart here.

Experiments:
men with hair loss = conditions: according to the American Academy of Dermatology
[1] = system: Male Patients with Androgenetic Alopecia; conditions: 30 men, 5 mg oral; for Hair Density in 1 sq cm area: Day 0 182.5
[2] = system: Male Patients with Androgenetic Alopecia; conditions: 30 men, 5 mg oral; for Hair Diameter: Day 0 58.5

CC(C)(C)NC(=O)[C@H]1CC[C@H]2[C@@H]3CC[C@H]4NC(=O)C=C[C@]4(C)[C@H]3CC[C@]12C [Finasteride]
men in whom it slows hair loss (men with hair loss): about 88% | men in whom it stimulates regrowth (men with hair loss): about 66%

Nc1cc(N2CCCCC2)nc(N)[n+]1[O-] [Oral Minoxidil, 2,4-diamino-6-piperidinopyrimidine 3-oxide]
Hair Density Increase vs Day 0 ([1]; Week 12 (Day 84)): 14.2% | Hair Density in 1 sq cm area ([1]; Week 12 (Day 84)): 208.5 | Hair Density Increase vs Day 0 ([1]; Week 24 (Day 168)): 19.2% | Hair Density in 1 sq cm area ([1]; Week 24 (Day 168)): 217.6 | Hair Diameter Increase vs Day 0 ([2]; Week 12 (Day 84)): 10.6% | Hair Diameter ([2]; Week 12 (Day 84)): 64.7 µm | Hair Diameter Increase vs Day 0 ([2]; Week 24 (Day 168)): 15.2% | Hair Diameter ([2]; Week 24 (Day 168)): 67.4 µm
